The record followed here is patent publication US20050222408A1, “Heterocyclic amides with anti-tuberculosis activity” (priority 2003, published 2005).

≈ marks a conversion by molar mass, not a printed value.

The first assay has as its system M. tuberculosis H37Ra. Description: MIC against M. tuberculosis H37Ra, micro broth dilution in microtiter plates. The settings on record: M. tuberculosis H37Ra. For orientation: Dilution methods test growth across graded concentrations, often in twofold steps.
Regarding `O=C(NCc1cccc(N2CCC(Cc3ccccc3)CC2)c1)c1ccc([N+](=O)[O-])o1` [Compound 70, 5-Nitro-furan-2-carboxylic acid 3-(4-benzyl-piperidin-1-yl)-benzylamide], the “anti-tuberculosis MIC activity” value is reported as “extremely potent”.

On to `O=C(c1ccc([N+](=O)[O-])o1)N1CCC(Cc2ccccc2)CC1` [Compound 72], for which the “anti-tuberculosis MIC activity” value is given as “good activity”.

For the compound `O=C(c1ccc([N+](=O)[O-])o1)N1CCN(Cc2ccccc2)CC1` [Compound 73], the “anti-tuberculosis MIC activity” value is “good activity”.

Consider `COc1cc2c(cc1OC)CN(C(=O)c1ccc([N+](=O)[O-])o1)CC2` [Compound 75], for which the “anti-tuberculosis MIC activity” value is recorded as “very potent”.

The same assay, now with this note: Mycobacterium tuberculosis, H37RA, 168 h, read-out: TB MIC, Table 1; M. tuberculosis H37Ra, 7 days at 37° C., MIC90.
In general, MIC refers to the lowest concentration that inhibits growth of the organism. On to `O=C(Nc1cccc(OCc2ccccc2)c1)c1ccc([N+](=O)[O-])o1` [Compound 37, 5-Nitro-furan-2-carboxylic acid(3-benzyloxy-phenyl)-amide], for which the MIC was determined as 12.5 µg/mL (≈ 36.9 µM).

The same assay, now with this note: Mycobacterium tuberculosis, H37RA, Table 6; M. tuberculosis H37Ra, MIC90.
For `O=C(c1ccc([N+](=O)[O-])o1)N1CCN(c2ncccn2)CC1` [Compound 81, (5-Nitro-furan-2-yl)-(4-pyrimidin-2-yl-piperazin-1-yl)-methanone], inhibition of growth (MIC) required 0.1 µg/mL (≈ 0.33 µM).

Take `COc1ccc(CN2CCN(C(=O)c3ccc([N+](=O)[O-])o3)CC2)cc1` [Compound 85, [4-(4-Methoxy-benzyl)-piperazin-1-yl]-(5-nitro-furan-2-yl)-methanone]: the MIC was 0.1 µg/mL (≈ 0.29 µM).

For the compound `COc1cccc(CN2CCN(C(=O)c3ccc([N+](=O)[O-])o3)CC2)c1` [Compound 86, [4-(3-Methoxy-benzyl)-piperazin-1-yl]-(5-nitro-furan-2-yl)-methanone], the MIC stood at 0.4 µg/mL (≈ 1.16 µM).

For `O=C(c1ccc([N+](=O)[O-])o1)N1CCN(Cc2cccc(OCc3ccccc3)c2)CC1` [Compound 87, [4-(3-Benzyloxy-benzyl)-piperazin-1-yl]-(5-nitro-furan-2-yl)-methanone], it took 0.4 µg/mL (≈ 0.949 µM) to inhibit growth (MIC).

`CCN(CC)c1ccc(CN2CCN(C(=O)c3ccc([N+](=O)[O-])o3)CC2)cc1` [Compound 88, [4-(4-Diethylamino-benzyl)-piperazin-1-yl]-(5-nitro-furan-2-yl)-methanone] registered an MIC of 0.4 µg/mL (≈ 1.04 µM).

`COc1ccc(CN2CCN(C(=O)c3ccc([N+](=O)[O-])o3)CC2)c(OC)c1` [Compound 89, [4-(2,4-Dimethoxy-benzyl)-piperazin-1-yl]-(5-nitro-furan-2-yl)-methanone] had an MIC of 0.2 µg/mL (≈ 0.533 µM).

Compound `O=C(c1ccc([N+](=O)[O-])o1)N1CCN(Cc2ccc(F)cc2)CC1` [Compound 90, [4-(4-Fluoro-benzyl)-piperazin-1-yl]-(5-nitro-furan-2-yl)-methanone] showed an MIC of 0.4 µg/mL (≈ 1.2 µM).

Take `CC(=O)c1ccc(N2CCN(C(=O)c3ccc([N+](=O)[O-])o3)CC2)cc1` [Compound 91, 1-{4-[4-(5-Nitro-furan-2-carbonyl)-piperazin-1-yl]-phenyl}-ethanone]: the MIC was 0.0031 µg/mL (≈ 0.00903 µM).

Consider `COc1ccc(N2CCN(C(=O)c3ccc([N+](=O)[O-])o3)CC2)cc1` [Compound 107, [4-(4-Methoxy-phenyl)-piperazin-1-yl]-(5-nitro-furan-2-yl)-methanone], for which the MIC came out at 0.05 µg/mL (≈ 0.151 µM).

For `O=C(c1ccc(F)cc1)N1CCN(C(=O)c2ccc([N+](=O)[O-])o2)CC1` [Compound 109, [4-(4-Fluoro-benzoyl)-piperazin-1-yl]-(5-nitro-furan-2-yl)-methanone], it took 0.05 µg/mL (≈ 0.144 µM) to inhibit growth (MIC).

For the compound `COc1ccc(C(=O)N2CCN(C(=O)c3ccc([N+](=O)[O-])o3)CC2)cc1` [Compound 110, [4-(4-Methoxy-benzoyl)-piperazin-1-yl]-(5-nitro-furan-2-yl)-methanone], the MIC stood at 0.05 µg/mL (≈ 0.139 µM).

Consider `CN1CCN(/N=C/c2ccc(CNC(=O)c3ccc([N+](=O)[O-])o3)cc2)CC1` [Compound 111, 5-Nitro-furan-2-carboxylic acid 4-[(4-methyl-piperazin-1-ylimino)-methyl]-benzylamide], for which it took 0.1 µg/mL (≈ 0.269 µM) to inhibit growth (MIC).

Still in this assay, the particulars now being: Table 1; M. tuberculosis H37Ra, 7 days at 37° C., MIC90.
Consider `COc1ccc(NC(=O)c2ccc([N+](=O)[O-])o2)cc1Cl` [Compound 1], for which the “TB MIC” value was found to be 1.6 µg/mL.

On to `O=C(Nc1cccc(Br)c1)c1ccc([N+](=O)[O-])o1` [Compound 11, 5-Nitro-furan-2-carboxylic acid(3-bromo-phenyl)-amide], for which the “TB MIC” value amounted to 1.6 µg/mL.

Take `COc1ccc(NC(=O)c2ccc([N+](=O)[O-])o2)cc1` [Compound 14, 5-Nitro-furan-2-carboxylic acid(4-methoxy-phenyl)-amide]: the “TB MIC” value was found to be 0.4 µg/mL.

Consider `O=C(NCc1ccco1)c1ccc([N+](=O)[O-])o1` [Compound 18, 5-Nitro-furan-2-carboxylic acid(furan-2-ylmethyl)-amide], for which the “TB MIC” value turned out to be 6.25 µg/mL.

On to `N#Cc1ccc(NC(=O)c2ccc([N+](=O)[O-])o2)cc1` [Compound 19, 5-Nitro-furan-2-carboxylic acid(4-cyano-phenyl)-amide], for which the “TB MIC” value is 0.8 µg/mL.

For `CN(C(=O)c1ccc([N+](=O)[O-])o1)c1ccccc1` [Compound 41], the “TB MIC” value stood at 3.12 µg/mL.

In the case of `COc1ccc(N(C)C(=O)c2ccc([N+](=O)[O-])o2)cc1` [Compound 42], the “TB MIC” value is 6.25 µg/mL.

Regarding `O=C(c1ccc([N+](=O)[O-])o1)N1CCc2ccccc21` [Compound 43], the “TB MIC” value was determined as 0.8 µg/mL.

For `O=C(Nc1cccnc1)c1ccc([N+](=O)[O-])o1` [Compound 45], the “TB MIC” value came to 6.25 µg/mL.

Consider `O=C(Nc1ccncc1)c1ccc([N+](=O)[O-])o1` [Compound 46], for which the “TB MIC” value worked out at 3.12 µg/mL.

Take `O=C(NCc1ccccn1)c1ccc([N+](=O)[O-])o1` [Compound 49, 5-nitro-furan-2-carboxylic acid(pyridin-2-ylmethyl)-amide]: the “TB MIC” value stood at 0.8 µg/mL.

As for `COc1cccc2sc(NC(=O)c3ccc([N+](=O)[O-])o3)nc12` [Compound 50, 5-nitro-furan-2-carboxylic acid(4-methoxy-benzothiazol-2-yl)-amide], the “TB MIC” value worked out at 1.6 µg/mL.

In the case of `COc1cc(NC(=O)c2ccc([N+](=O)[O-])o2)ncn1` [Compound 51, 5-nitro-furan-2-carboxylic acid(6-methoxy-pyrimin-4-yl)-amide], the “TB MIC” value was found to be 1.6 µg/mL.

Staying with this assay, now noted: Table 5; M. tuberculosis H37Ra, MIC90.
The compound `O=C(NCc1ccc(N2CC[S+]([O-])CC2)cc1)c1ccc([N+](=O)[O-])o1` [Compound 93, 5-Nitro-furan-2-carboxylic acid 4-(1-oxo-¼-thiomorpholin-4-yl)-benzylamide] showed a minimal inhibitory concentration (MIC) of 0.8 µg/mL (≈ 2.2 µM).

With `O=C(NCc1ccc(N2CCS(=O)(=O)CC2)cc1)c1ccc([N+](=O)[O-])o1` [Compound 94, 5-Nitro-furan-2-carboxylic acid 4-(1,1-dioxo-⅙-thiomorpholin-4-yl)-benzylamide], the MIC turned out to be 6.25 µg/mL (≈ 16.5 µM).

The same assay, now with this note: Table 6; M. tuberculosis H37Ra, MIC90.
The compound `O=C(c1ccc([N+](=O)[O-])o1)N1CCN(c2ccc(F)cc2)CC1` [Compound 108, [4-(4-Fluoro-phenyl)-piperazin-1-yl]-(^5-nitro-furan-2-yl)-methanone] displayed an MIC of 0.025 µg/mL (≈ 0.0783 µM).

The same assay, now with this note: quoted.
`CN(C(=O)c1ccc([N+](=O)[O-])o1)c1ccccc1` [Compound 41] yielded an MIC of 3.1 µg/mL (≈ 12.6 µM).

A further assay has as its system Vero cells. Description: Cytotoxicity, alamar blue assay against Vero cells. The settings on record: Chlorocebus sabaeus, Vero, read-out: ToxIC50. Format: cell-based.
Regarding `O=C(NCCc1ccccc1)c1ccc([N+](=O)[O-])o1` [Compound 27, 5-Nitro-furan-2-carboxylic acid phenethyl-amide], the IC50 turned out to be 25.2 µg/mL (≈ 96.9 µM).

The assay is the same for the next values; noted with them: Chlorocebus sabaeus; Table 1; Vero cells, alamar blue; unit inferred; read-out: ToxIC50.
On to `O=C(NC1CCCCC1)c1ccc([N+](=O)[O-])o1` [Compound 15, 5-Nitro-furan-2-carboxylic acid cyclohexylamide], for which the IC50 was 9.08 µg/mL (≈ 38.1 µM).

On to `O=C(NC12CC3CC(CC(C3)C1)C2)c1ccc([N+](=O)[O-])o1` [Compound 16, 5-Nitro-furan-2-carboxylic acid adamantan-1-ylamide], for which the IC50 was found to be 9.43 µg/mL (≈ 32.5 µM).

For `O=C(Nc1ccccc1)c1ccc([N+](=O)[O-])o1` [Compound 17, 5-Nitro-furan-2-carboxylic acid phenylamide], the IC50 was determined as 2.19 µg/mL (≈ 9.43 µM).

For the compound `COc1ccc(CNC(=O)c2ccc([N+](=O)[O-])o2)cc1` [Compound 20, 5-Nitro-furan-2-carboxylic acid 4-methoxy-benzylamide], the IC50 was 16.4 µg/mL (≈ 59.2 µM).

For the compound `O=C(NCc1ccccc1Cl)c1ccc([N+](=O)[O-])o1` [Compound 21, 5-Nitro-furan-2-carboxylic acid 2-chloro-benzylamide], the IC50 is 11.8 µg/mL (≈ 41.9 µM).

For the compound `COc1cc(CNC(=O)c2ccc([N+](=O)[O-])o2)cc(OC)c1OC` [Compound 24, 5-Nitro-furan-2-carboxylic acid 3,4,5-trimethoxy-benzylamide], the IC50 was found to be 23.6 µg/mL (≈ 70.1 µM).

Take `O=C(NC1CCc2ccccc21)c1ccc([N+](=O)[O-])o1` (stereo not drawn) [Compound 26, 5-Nitro-furan-2-carboxylic acid indan-1-ylamide]: the IC50 was determined as 10.3 µg/mL (≈ 37.8 µM).

Consider `COc1ccc(CNC(=O)c2ccc(Br)o2)cc1` [Compound 32, 5-Bromo-furan-2-carboxylic acid 4-methoxy-benzylamide], for which the IC50 came to 90.5 µg/mL (≈ 292 µM).

`O=C(Nc1cccc(O)c1)c1ccc([N+](=O)[O-])o1` [Compound 35, 5-Nitro-furan-2-carboxylic acid(3-hydroxy-phenyl)-amide]: the IC50 was 12.5 µg/mL (≈ 50.4 µM).

As for `COc1cccc(NC(=O)c2ccc([S+]([O-])c3ccccc3)o2)c1` (stereo not drawn) [Compound 38, 5-Benzenesulfinyl-furan-2-carboxylic acid(3-methoxy-phenyl)-amide], the IC50 amounted to 65 µg/mL (≈ 190 µM).

In the case of `COc1cccc(NC(=O)c2ccc(S(=O)(=O)c3ccccc3)o2)c1` [Compound 39, 5-Benzenesulfonyl-furan-2-carboxylic acid(3-methoxy-phenyl)-amide], the IC50 is 25.9 µg/mL (≈ 72.3 µM).

For `CCOC(=O)c1ccc(C(=O)Nc2cccc(OC)c2)o1` [Compound 40, 5-(3-Methoxy-phenylcarbamoyl)-furan-2-carboxylic acid ethyl ester], the IC50 worked out at 200 µg/mL (≈ 691 µM).

The assay is the same for the next values; noted with them: Table 1; Vero cells, alamar blue; unit not given.
In the case of `O=C(Nc1cccc(Br)c1)c1ccc([N+](=O)[O-])o1` [Compound 11, 5-Nitro-furan-2-carboxylic acid(3-bromo-phenyl)-amide], the ToxIC50 amounted to 15.37.

As for `COc1ccc(NC(=O)c2ccc([N+](=O)[O-])o2)cc1` [Compound 14, 5-Nitro-furan-2-carboxylic acid(4-methoxy-phenyl)-amide], the ToxIC50 turned out to be 21.44.

In turn, `O=C(NCc1ccco1)c1ccc([N+](=O)[O-])o1` [Compound 18, 5-Nitro-furan-2-carboxylic acid(furan-2-ylmethyl)-amide] registered a ToxIC50 of 4.08.

Consider `N#Cc1ccc(NC(=O)c2ccc([N+](=O)[O-])o2)cc1` [Compound 19, 5-Nitro-furan-2-carboxylic acid(4-cyano-phenyl)-amide], for which the ToxIC50 was found to be 3.53.
